The IC50 is the concentration needed to halve the response being measured. Higher therefore signals weaker potency in that assay.

The assay has as its target T1, Chymotrypsin-like elastase family member 2A (Sus scrofa, UniProt P08419).
T1 sequence (P08419 whole entry): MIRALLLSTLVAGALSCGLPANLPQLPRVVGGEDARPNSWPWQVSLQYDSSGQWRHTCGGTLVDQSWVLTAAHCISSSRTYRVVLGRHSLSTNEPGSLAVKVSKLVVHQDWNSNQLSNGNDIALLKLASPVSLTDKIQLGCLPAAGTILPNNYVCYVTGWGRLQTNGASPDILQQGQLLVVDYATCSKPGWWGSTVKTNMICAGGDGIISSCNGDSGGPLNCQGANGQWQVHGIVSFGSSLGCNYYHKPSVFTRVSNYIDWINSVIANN
Kind of assay: ChEBML_152310. An excerpt: Inhibitory concentration against porcine pancreatic elastase (PPE)

On to `CC(C)C[C@H]1C(=O)N(Cc2ccccc2)CCN1S(C)(=O)=O` [(S)-1-Benzyl-3-isobutyl-4-methanesulfonyl-piperazin-2-one], for which the 50% inhibitory concentration (IC50) was found to be 2000 µM. For `CC(C)C[C@H]1C(=O)N(S(C)(=O)=O)CCN1C(=O)OC(C)(C)C` [(S)-2-Isobutyl-4-methanesulfonyl-3-oxo-piperazine-1-carboxylic acid tert-butyl ester] the value was 923 µM. As for `CCC(C)[C@H]1C(=O)N(S(=O)(=O)c2ccc(C)cc2)CCN1C(=O)OC(C)(C)C` (stereo partly drawn) [(S)-2-sec-Butyl-3-oxo-4-(toluene-4-sulfonyl)-piperazine-1-carboxylic acid tert-butyl ester], the figure is 293 µM; as for `Cc1ccc(S(=O)(=O)N2CCN(Cc3ccccc3)C(=O)[C@@H]2CC(C)C)cc1` [(S)-1-Benzyl-3-isobutyl-4-(toluene-4-sulfonyl)-piperazin-2-one], 62 µM.

These data come from BindingDB's records for doi:10.1016/s0960-894x(02)00995-2 (The Oxford Centre For Molecular Sciences and The Dyson …, 2003).
